Holding throughout (assay): relative viability (nuclei count vs DMSO), 5 days (fraction); higher = more cells survive
Compound in one test: CCOC(=O)CCNc1cc(N2CCc3ccccc3CC2)nc(-c2ccccn2)n1 [GSK-J4]
In a few lines: (§1)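 MetaXpress counted nuclei in 4× images of lung cancer cell lines that had been fixed, permeabilised and Hoechst-stained in one step. Before that, cells in 1536-well plates were kept overnight at 37 °C, pinned with five √10-spaced library-drug doses on vehicle-anchored plates, and cultured 5 days without medium change. Viability takes treated-well nuclei over vehicle-well nuclei and uses the median across plates. Plates were accepted only at control CV below 25% and at least one doubling.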

Compound in a further test: CN1CCC(CC1)OC2=CC(=C(C=C2)NC3=NC=C4C(=N3)N(C(=O)N4C)C5CCCC5)OC [AZ3146]
In a few lines: as §1

Compound in the test “AZ3146 + Navitoclax”: CN1CCC(CC1)OC2=CC(=C(C=C2)NC3=NC=C4C(=N3)N(C(=O)N4C)C5CCCC5)OC [AZ3146] + CC1(C)CCC(c2ccc(Cl)cc2)=C(CN2CCN(c3ccc(C(=O)NS(=O)(=O)c4ccc(N[C@H](CCN5CCOCC5)CSc5ccccc5)c(S(=O)(=O)C(F)(F)F)c4)cc3)CC2)C1 [Navitoclax] (partner 0.5 µM)
In a few lines: (§2)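 Cells from lung cancer lines were seeded into 1536-well plates and, one day later, dosed by pin tool. Treatments were either a single drug or a fixed dose of an anchor drug with five library-drug doses (not always all listed) in √10 steps. After 5 days, nuclei were stained in a one-step fixation (final 0.05% Triton X-100, 1% formaldehyde, 1 ug/ml Hoechst) and counted on 4× images, and relative viability is the treated-to-vehicle nuclei ratio, as the median of duplicate plates.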

Compound in the test “GSK-J4 + Trametinib”: CCOC(=O)CCNc1cc(N2CCc3ccccc3CC2)nc(-c2ccccn2)n1 [GSK-J4] + CC(=O)Nc1cccc(-n2c(=O)n(C3CC3)c(=O)c3c(Nc4ccc(I)cc4F)n(C)c(=O)c(C)c32)c1 [Trametinib] (partner 0.02 µM)
In a few lines:
as §2

On to SK-MES-1, for which the relative viability with GSK-J4 (0.5 µM) is 0.965; with GSK-J4 (1.581 µM) it was 0.937; with GSK-J4 (5 µM) it was 0.932; with GSK-J4 (15.81 µM), 0.928; in the test with GSK-J4 (50 µM), 0.783; with AZ3146 (0.08 µM) it was 1. Moreover, the relative viability in the test with AZ3146 (0.253 µM) was 0.985; in the test with AZ3146 (0.8 µM), 1.07; with AZ3146 (2.53 µM), 0.991; in the test with AZ3146 (8 µM), 0.95; with AZ3146 + Navitoclax (first compound 0.08 µM), 1.32; with AZ3146 + Navitoclax (first compound 0.253 µM) it was 1.22. Further, the relative viability amounted to 1.3 with AZ3146 + Navitoclax (first compound 0.8 µM); 1.35 in the test with AZ3146 + Navitoclax (first compound 2.53 µM); 1.35 with AZ3146 + Navitoclax (first compound 8 µM); 0.56 with GSK-J4 + Trametinib (first compound 0.5 µM); 0.582 in the test with GSK-J4 + Trametinib (first compound 1.581 µM); 0.497 with GSK-J4 + Trametinib (first compound 5 µM). Moreover, the values for the relative viability with GSK-J4 + Trametinib (first compound 15.81 µM) and in the test with GSK-J4 + Trametinib (first compound 50 µM) were 0.489 and 0.478, respectively.

Take PC-3 [JPC-3]: the relative viability with GSK-J4 (0.5 µM) amounted to 1.01; in the test with GSK-J4 (1.581 µM) it was 1.03; with GSK-J4 (5 µM), 0.953; in the test with GSK-J4 (15.81 µM), 0.95; in the test with GSK-J4 (50 µM), 0.955; with AZ3146 (0.08 µM) it was 0.907. Besides, the relative viability with AZ3146 (0.253 µM) is 0.97; in the test with AZ3146 (0.8 µM), 1.01; with AZ3146 (2.53 µM) it was 1.05; with AZ3146 (8 µM), 0.979; with AZ3146 + Navitoclax (first compound 0.08 µM), 0.679; in the test with AZ3146 + Navitoclax (first compound 0.253 µM) it was 0.836. In addition, the relative viability with AZ3146 + Navitoclax (first compound 0.8 µM) is 0.802; in the test with AZ3146 + Navitoclax (first compound 2.53 µM), 0.797; with AZ3146 + Navitoclax (first compound 8 µM) it was 0.85; with GSK-J4 + Trametinib (first compound 0.5 µM) it was 0.783; with GSK-J4 + Trametinib (first compound 1.581 µM), 0.551; with GSK-J4 + Trametinib (first compound 5 µM), 0.598. For the same cell line, the relative viability in the test with GSK-J4 + Trametinib (first compound 15.81 µM) worked out at 0.647; with GSK-J4 + Trametinib (first compound 50 µM) it was 0.64.

Take COR-L 105: the relative viability was determined as 0.925 in the test with GSK-J4 (0.5 µM); 0.864 with GSK-J4 (1.581 µM); 0.795 with GSK-J4 (5 µM); 0.949 in the test with GSK-J4 (15.81 µM); 0.861 in the test with GSK-J4 (50 µM); 0.82 with AZ3146 (0.08 µM). The relative viability in the test with AZ3146 (0.253 µM) worked out at 0.874; with AZ3146 (0.8 µM), 0.939; with AZ3146 (2.53 µM), 0.825; with AZ3146 (8 µM), 0.504; with AZ3146 + Navitoclax (first compound 0.08 µM), 0.805; with AZ3146 + Navitoclax (first compound 0.253 µM), 0.712. Further, the relative viability is 0.745 with AZ3146 + Navitoclax (first compound 0.8 µM); 0.791 with AZ3146 + Navitoclax (first compound 2.53 µM); 0.711 with AZ3146 + Navitoclax (first compound 8 µM); 0.467 with GSK-J4 + Trametinib (first compound 0.5 µM); 0.46 with GSK-J4 + Trametinib (first compound 5 µM); 0.458 with GSK-J4 + Trametinib (first compound 15.81 µM). Further, the relative viability with GSK-J4 + Trametinib (first compound 50 µM) was 0.451.

With EKVX, the relative viability with GSK-J4 (0.5 µM) stood at 0.998; in the test with GSK-J4 (1.581 µM), 0.71; in the test with GSK-J4 (5 µM), 1.03; with GSK-J4 (15.81 µM) it was 0.85; in the test with GSK-J4 (50 µM), 0.898; with AZ3146 (0.08 µM) it was 0.954. Moreover, the relative viability in the test with AZ3146 (0.253 µM) amounted to 0.999; with AZ3146 (0.8 µM), 0.93; in the test with AZ3146 (2.53 µM) it was 1; in the test with AZ3146 (8 µM) it was 1.04; with AZ3146 + Navitoclax (first compound 0.08 µM), 0.817; with AZ3146 + Navitoclax (first compound 0.253 µM) it was 0.907. For the same cell line, the relative viability stood at 0.898 in the test with AZ3146 + Navitoclax (first compound 0.8 µM); 1.02 in the test with AZ3146 + Navitoclax (first compound 2.53 µM); 1.16 in the test with AZ3146 + Navitoclax (first compound 8 µM); 0.337 in the test with GSK-J4 + Trametinib (first compound 0.5 µM); 0.515 with GSK-J4 + Trametinib (first compound 5 µM); 0.307 in the test with GSK-J4 + Trametinib (first compound 15.81 µM). For the same cell line, the relative viability with GSK-J4 + Trametinib (first compound 50 µM) came to 0.21.

For the origin of these results see the supplement of paper PMC10307832.
